“Also recorded” adds a separate entry of the source. No end group written: not given here.
Legend:
NCI-H1703 cells = assay: Alamar Blue cell viability and growth assay; assay type: cell-based, human
Protocol: Cells were seeded in black wall 96-well plate in triplicate and treated with various doses of peptide on Day 0 and were incubated at 37° C. in a humid incubator with 5% CO2. After 72 hours, Alamar Blue assay was performed.
Cells were seeded in black wall 96-well plate in triplicate and treated with 10 μM peptide or DMSO on Day 0, and the cell viability was measured by Alamar Blue assay after 24, 48 and 72 hours.
Cell viability assay: Cells were seeded in black wall 96-well plate in triplicate and treated with various doses of peptide on Day 0 and were incubated at 37° C. in a humid incubator with 5% CO2. After 72 hours, Alamar Blue assay was performed according to the instruction from manufacturer. For cell growth profile, the cells were seeded in black wall 96-well plate in triplicate and treated with 10 μM peptide or DMSO on Day 0, and cell viability was measured by Alamar Blue assay after 24, 48 and 72 hours.

[1] = system: Wnt3a-stimulated β-catenin signaling in HEK293S cells; assay: TOPGLOW luciferase reporter assay in HEK293S cells; assay type: cell-based
Protocol: HEK293S cells were transfected with the reporter plasmid pTOPGLOW combined with pRL reporter. Cell extract was prepared and the luciferase activity was measured. The relative luciferase unit (RLU) is TopGlow luciferase activity divided by Renila luciferase activity. The fold of activation is the RLU ratio between the Wnt3a-stimulated and non-stimulated cells. Cells were treated with either 10 μM (light bar) or 20 μM (dark bar) peptide ligands.
(§1) Cell culture, transfection and peptide treatment: HEK293 and H1703 were propagated according to the instructions from American Type Culture Collection. HEK293 cells were transfected with FuGene6 according to the manufacturer's instructions (Roche Molecular Biochemicals) at cell confluence of 50%. H1703 cells were transfected with Lipofectamine according to manufacturer's instruction at cell confluence of 80%. Cells were treated with medium containing peptide (5 μM-40 μM) 24 hours after transfection, and were routinely harvested 24 hours after the peptide treatment for additional assays.
(§2) TOPGLOW assay: Cells were plated in 12-well plates. The TOPGLOW reporter plasmid was transfected transiently into cells as described above. TCF-mediated gene transcription was determined by pTOPGLOW luciferase activity, which was normalized to relative luciferase activities of pRL reporter (cotransfected internal control). All experiments were performed duplicated.

[2] = system: Wnt-stimulated β-catenin signaling in NCI-H1703 cells; assay: TOPGLOW luciferase reporter assay in NCI-H1703 cells; assay type: cell-based, human
Protocol: NCI-H1703 cells were transfected with the reporter plasmid pTOPGLOW combined with pRL reporter. Cell extract was prepared and the luciferase activity was measured. The relative luciferase unit is TopGlow luciferase activity divided by Renila luciferase activity. The fold of activation is the RLU ratio between the Wnt3a-stimulated or non-stimulated cells.
as §1, §2

[3] = system: β-catenin protein level in HEK293S cells; assay: Western blot of β-catenin protein level in HEK293S cells; assay type: cell-based; details: 20 μM peptide, 24 hours, compared to DMSO and PEN
Protocol: HEK293S cells were treated with 20 μM DVLp and PEN for 24 hours. Cell lysate was prepared and subjected to SDS-PAGE. β-catenin was blotted by poly-clonal anti-β-catenin (Genentech, Inc., South San Francisco).
as §1
Western Blot: Harvested cells were lysed with SIC lysis buffer, the supernatant was subjected to SDS-PAGE, which was transferred, blocked and blotted with proper primary antibody by a standard western blot protocol. Fluorescence labeled secondary antibodies (Alexa goat anti-mouse or anti-rabbit) were added and the results were analyzed by Li-core™.

Dvl2 = molecular target: T1, Dvl2 (Homo sapiens, UniProt O14641); assay: GST pull-down from HEK293S cell extract, blot with anti-Dvl2; assay type: binding; details: HEK293 cell lysate, glutathione Sepharose-4B beads
T1 construct: All three endogenous Dvl could be detected in crude cell lysate of HEK293, and could be pulled down by GST-Dvlpep; endogenous in cells; host or cells: HEK293S
T1 sequence (O14641 1-736): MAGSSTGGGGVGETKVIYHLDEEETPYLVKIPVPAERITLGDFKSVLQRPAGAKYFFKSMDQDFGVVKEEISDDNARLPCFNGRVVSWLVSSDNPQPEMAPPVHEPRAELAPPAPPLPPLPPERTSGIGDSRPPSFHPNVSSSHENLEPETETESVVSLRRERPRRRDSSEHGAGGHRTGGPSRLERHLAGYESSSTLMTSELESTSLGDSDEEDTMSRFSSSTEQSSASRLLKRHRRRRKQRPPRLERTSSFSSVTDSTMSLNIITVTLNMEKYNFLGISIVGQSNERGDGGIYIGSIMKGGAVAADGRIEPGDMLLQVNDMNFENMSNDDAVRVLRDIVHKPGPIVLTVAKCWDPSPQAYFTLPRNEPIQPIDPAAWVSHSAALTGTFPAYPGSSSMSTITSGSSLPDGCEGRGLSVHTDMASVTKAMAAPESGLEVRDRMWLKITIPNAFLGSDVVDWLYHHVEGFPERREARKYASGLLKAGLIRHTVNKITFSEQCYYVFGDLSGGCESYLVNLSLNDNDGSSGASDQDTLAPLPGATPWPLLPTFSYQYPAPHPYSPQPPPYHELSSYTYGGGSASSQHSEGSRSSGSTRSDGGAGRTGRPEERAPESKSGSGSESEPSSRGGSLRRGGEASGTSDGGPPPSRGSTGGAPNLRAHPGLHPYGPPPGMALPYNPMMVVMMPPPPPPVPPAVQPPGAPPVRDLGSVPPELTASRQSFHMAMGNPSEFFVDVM
Protocol: (§3) Cell lysate of HEK293S cell was prepared and the whole protein concentration was normalized to 1 mg/ml. GST or GST-DVLpep fusion protein was bound to glutathione Sepharose-4B. Beads carrying protein (2-10 μg) were incubated with cell extract of HEK293S cells overnight at 4° C. The beads were washed with washing buffer (PBS, 0.5% BSA, 0.1% Tween 20) for 10 times and resuspended in SDS sample buffer, incubated at 90° C. for 10 min and the supernatant was subjected to SDS-PAGE. The crude cell extract was also subjected to the same SDS-PAGE. Dvl proteins were blotted by anti-Dvl1, anti-Dvl2, and anti-Dvl3.
(§4) Pull-down Assays—GST or GST-DVLpep fusion protein (GST fused with peptide GGGKWYGWL (SEQ ID NO: 182) at its C-terminus) was bound to glutathione Sepharose-4B following standard protocols, and bound proteins were quantified by SDS-PAGE using known amounts of BSA as standards. Beads carrying protein (2-10 μg) were incubated with cell extract of HEK293S cell overnight at 4° C. The cell extracts were prepared by lysing the cell in SJC lysis buffer. The whole protein concentration was determined by BCA protein kit (Promega; Madison, Wis.) and normalized to 1 mg/ml. […] Bound proteins were blotted by anti-Dvl1, anti-Dvl2 and anti-Dvl3 and analyzed by Li-core™.

Dvl3 = molecular target: T2, Dvl3 (Homo sapiens, UniProt Q92997); assay: GST pull-down from HEK293S cell extract, blot with anti-Dvl3; assay type: binding; details: HEK293 cell lysate, glutathione Sepharose-4B beads
T2 construct: All three endogenous Dvl could be detected in crude cell lysate of HEK293, and could be pulled down by GST-Dvlpep; endogenous in cells; host or cells: HEK293S
T2 sequence (Q92997 1-716): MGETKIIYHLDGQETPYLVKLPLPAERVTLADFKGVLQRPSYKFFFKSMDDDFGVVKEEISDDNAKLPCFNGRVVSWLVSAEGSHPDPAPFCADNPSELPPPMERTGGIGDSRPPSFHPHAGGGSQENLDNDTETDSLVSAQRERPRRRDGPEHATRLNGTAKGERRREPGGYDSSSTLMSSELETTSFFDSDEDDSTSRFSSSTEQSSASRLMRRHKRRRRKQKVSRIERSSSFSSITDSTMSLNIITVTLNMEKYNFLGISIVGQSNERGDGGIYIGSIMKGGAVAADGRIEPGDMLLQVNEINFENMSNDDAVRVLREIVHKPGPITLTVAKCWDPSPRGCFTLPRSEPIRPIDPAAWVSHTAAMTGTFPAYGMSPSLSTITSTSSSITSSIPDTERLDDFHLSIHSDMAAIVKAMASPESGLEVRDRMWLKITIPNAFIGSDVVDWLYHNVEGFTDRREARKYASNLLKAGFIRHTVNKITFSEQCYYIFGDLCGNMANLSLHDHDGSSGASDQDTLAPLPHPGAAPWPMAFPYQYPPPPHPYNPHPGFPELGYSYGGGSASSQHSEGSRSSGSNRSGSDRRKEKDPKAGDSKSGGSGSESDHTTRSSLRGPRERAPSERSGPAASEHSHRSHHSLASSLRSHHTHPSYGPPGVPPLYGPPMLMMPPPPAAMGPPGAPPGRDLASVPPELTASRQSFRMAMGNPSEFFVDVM
Protocol: as §3, §4

Dvl1 = molecular target: T3, Dvl1 (Homo sapiens, UniProt O14640); assay: GST pull-down from HEK293S cell extract, blot with anti-Dvl1; assay type: binding; details: HEK293 cell lysate, glutathione Sepharose-4B beads
T3 construct: All three endogenous Dvl could be detected in crude cell lysate of HEK293, and could be pulled down by GST-Dvlpep; endogenous in cells; host or cells: HEK293S
T3 sequence (O14640 1-695): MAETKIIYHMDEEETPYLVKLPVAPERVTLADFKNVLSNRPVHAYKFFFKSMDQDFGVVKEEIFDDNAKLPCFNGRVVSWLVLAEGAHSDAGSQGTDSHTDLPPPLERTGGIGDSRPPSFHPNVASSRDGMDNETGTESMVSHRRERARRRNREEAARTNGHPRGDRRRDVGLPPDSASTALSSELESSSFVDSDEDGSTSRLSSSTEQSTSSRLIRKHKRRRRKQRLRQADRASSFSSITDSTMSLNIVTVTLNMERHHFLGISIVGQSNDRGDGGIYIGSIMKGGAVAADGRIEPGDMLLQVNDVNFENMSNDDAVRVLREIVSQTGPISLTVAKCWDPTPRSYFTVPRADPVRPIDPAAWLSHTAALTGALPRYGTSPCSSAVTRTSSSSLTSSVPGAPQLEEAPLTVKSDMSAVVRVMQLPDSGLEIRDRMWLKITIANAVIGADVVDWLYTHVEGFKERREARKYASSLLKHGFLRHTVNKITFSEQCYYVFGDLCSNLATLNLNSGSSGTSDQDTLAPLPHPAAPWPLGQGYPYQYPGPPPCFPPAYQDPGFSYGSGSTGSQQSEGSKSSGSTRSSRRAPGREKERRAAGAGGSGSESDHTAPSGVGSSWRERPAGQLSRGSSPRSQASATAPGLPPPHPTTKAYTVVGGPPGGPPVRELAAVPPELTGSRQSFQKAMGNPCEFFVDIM
Protocol: as §3, §4

| Substance | Cell growth profile (NCI-H1703 cells; NCI-H1703, 10 μM peptide, 24, 48 and 72 hours) | Cell viability with Wnt3a stimulation (NCI-H1703 cells; NCI-H1703, 72 hours, peptide dose of 5 μM) | Cell viability without Wnt3a stimulation (NCI-H1703 cells; NCI-H1703, 72 hours, peptide dose over 10 μM) | Effect on Wnt3a-stimulated transcriptional activity (TopGlow) ([1]; HEK293S cells, peptide up to 20 μM in medium) | Dose dependence of inhibition of Wnt-stimulated β-catenin signaling ([1]; HEK293S cells, two independent experiments) | Inhibition of Wnt3a-stimulated transcriptional activity ([1]; HEK293 cells, peptide 5-20 μM) | Effect on Wnt-stimulated β-catenin signaling / Tcf-stimulated transcriptional activity (TopGlow) [2] | β-catenin level in whole cell lysate upon Wnt3a stimulation [3] | Pull-down of endogenous Dvl2 (Dvl2) | Pull-down of endogenous Dvl3 (Dvl3) | Pull-down of endogenous Dvl1 (Dvl1) |
| --- | --- | --- | --- | --- | --- | --- | --- | --- | --- | --- | --- |
| Ac-RQIKIWFQNRRMKWKKKWYGWL [DVLp_C] | much slower than that of DMSO or PEN-treated cells; also recorded: effectively suppressed the cell growth | lower viability of DVLp_C-treated cells compared to PEN-treated cells | much lower viability than PEN-treated cells | inhibited Wnt3a-stimulated transcriptional activity significantly; also recorded: significantly blocked the Wnt-stimulated increase in β-catenin signaling | dose-dependent | about 50% | inhibited by DVLp_C treatment significantly; also recorded: blocked the Wnt-stimulated increase in β-catenin signaling | significantly lower β-catenin levels; also recorded: reduced the Wnt-stimulated increase in β-catenin protein level | – | – | – |
| GST-Dvlpep: GST fused with peptide GGGKWYGWL (SEQ ID NO: 182) at its C-terminus ({GST}-GGGKWYGWL) | – | – | – | – | – | – | – | – | pulled down | pulled down | pulled down |

Source: patent publication US7977064B2, “Disheveled PDZ modulators” (Genentech, Inc., priority 2006, dated 2011)
